These results are taken from patent US9212168B2 (priority 2011, dated 2015).

Experiment [1] addresses HCV genotype 1b replicon. Description: HCV genotype 1b replicon assay (Renilla luciferase readout). Type of experiment: cell-based, hepatitis C virus. Conditions: for Genotype 1b: HCV genotype 1b replicon; for EC50: Hepatitis C virus, read-out: Genotype 1b. In short, it runs like this: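 Huh7-derived APC144 subgenomic replicon cells carrying Renilla luciferase–NS3-NS5B, seeded 10,000/well without G418, then treated with compound dose-responses for 48 h at 37 °C (0.5% DMSO final). Luciferase signal fitted by 4-parameter model to EC50, reported as pEC50.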

In experiment [2] the test system is HCV genotype 1a replicon. In words: HCV genotype 1a replicon assay (NS3 protease activity readout). Type of experiment: cell-based, hepatitis C virus. As to conditions: for Genotype 1a: HCV genotype 1a replicon; for EC50: Hepatitis C virus, read-out: Genotype 1a, HCV genotype 1a replicon. In short, it runs like this:
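Genotype 1a subgenomic replicon cells (APC89, Huh7.5) were treated with compound dose-responses in G418-free medium, 0.5% DMSO final, for 48 or 72 hours at 37° C. Lysate NS3/4a protease activity measured with 15 μM FRET substrate, 20 min at 37° C (ex 340/em 509 nm); EC50 by 4-parameter fit.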

Bounds are passed on as bounds.

In the case of `CNC(=O)N1CCN(c2ccc(C(=O)Nc3cc(OC(F)(F)F)c(-c4ccc(-c5c[nH]c([C@@H]6C[C@H](C)CN6C(=O)[C@@H](NC(=O)OC)C(C)C)n5)cc4)cc3F)cn2)[C@H](C)C1` [Example 1-1], the “Genotype 1b” value in experiment [1] is reported as “D (D represents pEC50>10 (EC50<0.1 nM))”. For the same compound, the “Genotype 1a” value in experiment [2] is on record as “D (D represents pEC50>10 (EC50<0.1 nM))”.
For `COC(=O)N[C@H](C(=O)N1C[C@@H](C)C[C@H]1c1nc(-c2ccc(-c3cc(F)c(NC(=O)c4ccc(N5CCN(C(=O)C(C)(C)C)C[C@H]5C)nc4)cc3OC(F)(F)F)cc2)c[nH]1)C(C)(C)O` [Example 13-24], the EC50 in experiment [1] and in experiment [2] was below 0.1 nM throughout.
For `COCC(=O)N1CCC[C@@]1(C)C(=O)N1CCN(c2ccc(NC(=O)c3ccc(-c4ccc(-c5c[nH]c([C@@H]6C[C@H](C)CN6C(=O)[C@@H](NC(=O)OC)C(C)C)n5)cc4)c(OC(F)(F)F)c3)cn2)[C@H](C)C1` [Example 4-4], the “Genotype 1b” value in experiment [1] is given as “D (D represents pEC50>10 (EC50<0.1 nM))”. Also, the “Genotype 1a” value in experiment [2] is listed as “D (D represents pEC50>10 (EC50<0.1 nM))”.
Consider `COC[C@H]1CN(c2ccc(NC(=O)c3cc(OC(F)(F)F)c(-c4ccc(-c5c[nH]c([C@@H]6C[C@H](C)CN6C(=O)[C@@H](NC(=O)OC)C6CCOCC6)n5)cc4)cc3Cl)cn2)CCN1C(=O)C(C)(C)C` [24-4], for which the “Genotype 1b” value in experiment [1] is “D (D represents pEC50>10 (EC50<0.1 nM))”. Moreover, in experiment [2], the “Genotype 1a” value was “C (C represents pEC50 between and 9 and about 10, (EC50 between 1 nM and 0.1 nM))”.
On to `CNC(=O)N1CCN(c2ccc(C(=O)Nc3ccc(-c4ccc(-c5c[nH]c([C@@H]6C[C@H](N(C)C)CN6C(=O)[C@@H](NC(=O)OC)C(C)C)n5)cc4)c(C)c3)cn2)[C@H](C)C1` [Example 2-5], for which the “Genotype 1b” value in experiment [1] was “D (D represents pEC50>10 (EC50<0.1 nM))”. The “Genotype 1a” value in experiment [2] was “C (C represents pEC50 between and 9 and about 10, (EC50 between 1 nM and 0.1 nM))”.
As to `COC(=O)N[C@H](C(=O)N1C[C@@H](C)C[C@H]1c1nc(-c2ccc(-c3ccc(C(=O)Nc4ccc(N5C[C@H](C)N(C(=O)[C@@]6(O)CC6(C)C)C[C@H]5C)nc4)cc3OC(F)(F)F)cc2)c(Cl)[nH]1)C(C)C` [Example 4-37], in experiment [1], the “Genotype 1b” value is “D (D represents pEC50>10 (EC50<0.1 nM))”. Moreover, in experiment [2], the “Genotype 1a” value was “D (D represents pEC50>10 (EC50<0.1 nM))”.
With `COC(=O)N[C@H](C(=O)N1[C@@H](C)CC[C@H]1c1nc(-c2ccc(-c3cc(Cl)c(C(=O)Nc4ccc(N5CCN(C(=O)C(C)(C)C)C[C@H]5C)nc4)cc3OC(F)(F)F)cc2)c[nH]1)C1C[C@@H](C)O[C@@H](C)C1` (some centres unmarked) [Example 18-6], the “Genotype 1b” value in experiment [1] is reported as “D (D represents pEC50>10 (EC50<0.1 nM))”. In addition, the “Genotype 1a” value in experiment [2] is “D (D represents pEC50>10 (EC50<0.1 nM))”.
As to `COC(=O)N[C@H](C(=O)N1C[C@@H](N(C)C)C[C@H]1c1nc(-c2ccc(-c3ccc(NC(=O)c4ccc(N5CCN(C(=O)[C@]6(C)CCCN6C(C)=O)C[C@H]5C)nc4)cc3)cc2)c[nH]1)C(C)C` [Example 2-2], the “Genotype 1b” value in experiment [1] was “C (C represents pEC50 between and 9 and about 10, (EC50 between 1 nM and 0.1 nM))”. Further, in experiment [2], the “Genotype 1a” value was “C (C represents pEC50 between and 9 and about 10, (EC50 between 1 nM and 0.1 nM))”.
`COC(=O)N[C@H](C(=O)N1C[C@@H](OC)C[C@H]1c1nc(-c2ccc(-c3cc(F)c(NC(=O)c4ccc(N5CCN(C(=O)C(C)(C)CO)C[C@H]5C)nc4)cc3OC(F)(F)F)cc2)c[nH]1)C1CCOCC1` [Example 28-3]: the “Genotype 1b” value in experiment [1] is recorded as “D (D represents pEC50>10 (EC50<0.1 nM))”. For the same compound, the “Genotype 1a” value in experiment [2] is reported as “D (D represents pEC50>10 (EC50<0.1 nM))”.
For `COC(=O)N[C@H](C(=O)N1C[C@@H](C)C[C@H]1c1nc(-c2ccc(-c3ccc(NC(=O)c4ccc(N5CCN(C(=O)[C@H]6CC6(C)C)C[C@H]5C)nc4)cc3C(F)(F)F)cc2)c[nH]1)C(C)C` [Example 1-62], in experiment [1], the “Genotype 1b” value is “D (D represents pEC50>10 (EC50<0.1 nM))”. For the same compound, the “Genotype 1a” value in experiment [2] is reported as “D (D represents pEC50>10 (EC50<0.1 nM))”.
With `COC(=O)N[C@H](C(=O)N1C[C@@H](C)C[C@H]1c1nc(-c2ccc(-c3ccc(C(=O)Nc4ccc(N5CCN(C(=O)C(C)(C)C)C[C@H]5C)nc4)cc3)cc2)c[nH]1)C1CCOCC1` [Example 22-1], in experiment [1], the “Genotype 1b” value is “D (D represents pEC50>10 (EC50<0.1 nM))”. The “Genotype 1a” value in experiment [2] is “D (D represents pEC50>10 (EC50<0.1 nM))”.
For the compound `COC(=O)N[C@H](C(=O)N1CC2(C[C@H]1c1nc(-c3ccc(-c4ccc(C(=O)Nc5ccc(N6CCN(C(=O)C7CC7(C)C)C[C@H]6C)nc5)cc4)cc3)c[nH]1)OCCO2)C(C)C` (some centres unmarked) [Example 6-1], the values for the EC50 in experiment [1] and in experiment [2] were below 0.1 nM and 0.1 to 1 nM, respectively.
As to `COC(=O)NC(C(=O)N1CC(OC)CC1c1nc(-c2ccc(-c3cc(F)c(NC(=O)c4ccc(N5CCN(C(=O)C(C)(C)C)CC5C)nc4)cc3OC(F)(F)F)cc2)c[nH]1)C(C)O` (centres unmarked) [Example 16-4], the “Genotype 1b” value in experiment [1] was “D (D represents pEC50>10 (EC50<0.1 nM))”. The “Genotype 1a” value in experiment [2] is on record as “D (D represents pEC50>10 (EC50<0.1 nM))”.
Regarding `COC(=O)N[C@H](C(=O)N1C[C@@H](C)C[C@H]1c1nc(-c2ccc(-c3cc(Cl)c(NC(=O)c4ccc(N5CCN(C(=O)C(C)(C)C)C[C@H]5C)nc4)cc3OC(F)(F)F)cc2)c(CO)[nH]1)C1CCOCC1` [Example 20-2], the “Genotype 1b” value in experiment [1] is “D (D represents pEC50>10 (EC50<0.1 nM))”. For the same compound, the “Genotype 1a” value in experiment [2] was “D (D represents pEC50>10 (EC50<0.1 nM))”.
On to `COC(=O)N[C@H](C(=O)N1C[C@@H](C)C[C@H]1c1nc(-c2ccc(-c3cc(Cl)c(NC(=O)c4ccc(N5CCN(C(=O)C(C)(C)F)C[C@H]5C)nc4)cc3OC(F)(F)F)cc2)c[nH]1)C(C)C` [Example 1-96], for which, in experiment [1], the “Genotype 1b” value is “D (D represents pEC50>10 (EC50<0.1 nM))”. The “Genotype 1a” value in experiment [2] was “D (D represents pEC50>10 (EC50<0.1 nM))”.
In the case of `COC(=O)N[C@H](C(=O)N1C[C@@H](C)C[C@H]1c1nc(-c2ccc(-c3cc(Cl)c(NC(=O)c4ccc(N5C[C@H](C)N(C(=O)c6c[nH]cn6)C[C@H]5C)nc4)cc3C(F)(F)F)cc2)c[nH]1)C(C)C` [Example 3, [(S)-1-((2S,4S)-2-{4-[5′-Chloro-4′-({6-[(2R,5S)-4-(1H-imidazole-4-carbonyl)-2,5-dimethyl-piperazin-1-yl]-pyridine-3-carbonyl}-amino)-2′-trifluoromethyl-biphenyl-4-yl]-1H-imidazol-2-yl}-4-methyl-pyrrolidine-1-carbonyl)-2-methyl-propyl]-carbamic acid methyl ester], the EC50 in experiment [1] and in experiment [2] was below 0.1 nM each time.
For `COC(=O)NC(C(=O)N1C[C@@H](C)C[C@H]1c1nc(-c2ccc(-c3c(F)cc(NC(=O)c4ccc(N5CCN(C(=O)C(C)(C)C)C[C@H]5C)nc4)cc3F)cc2)c[nH]1)C1CCOCC1` (some centres unmarked) [Example 21-3], the EC50 in experiment [1] and in experiment [2] was below 0.1 nM each time.
Consider `CNC(=O)N1CCN(c2ccc(C(=O)Nc3cc(C(F)(F)F)c(-c4ccc(-c5c[nH]c([C@@H]6C[C@H](C)CN6C(=O)[C@@H](NC(=O)OC)C(C)C)n5)cc4)cc3F)cn2)[C@H](C)C1` [Example 1-9], for which the “Genotype 1b” value in experiment [1] is listed as “D (D represents pEC50>10 (EC50<0.1 nM))”. The “Genotype 1a” value in experiment [2] is on record as “D (D represents pEC50>10 (EC50<0.1 nM))”.
As to `COC(=O)N[C@H](C(=O)N1C[C@@H](C)C[C@H]1c1nc(-c2ccc(-c3cc(Cl)c(C(=O)Nc4ccc(N5CCN(C(=O)C(C)(C)C)C[C@H]5C)nc4)cc3OC(F)(F)F)cc2)c[nH]1)C(C)C` [Example 4-46], the “Genotype 1b” value in experiment [1] is recorded as “D (D represents pEC50>10 (EC50<0.1 nM))”. Besides, the “Genotype 1a” value in experiment [2] is on record as “D (D represents pEC50>10 (EC50<0.1 nM))”.
On to `COC(=O)N[C@H](C(=O)N1C[C@@H](C)C[C@H]1c1nc(-c2ccc(-c3ccc(C(=O)Nc4ccc(N5C[C@H](C)N(C(=O)[C@H]6CCCN6C(=O)NC(C)C)C[C@H]5C)nc4)cc3OC(F)(F)F)cc2)c[nH]1)C(C)C` [Example 4-20], for which, in experiment [1], the “Genotype 1b” value is on record as “D (D represents pEC50>10 (EC50<0.1 nM))”. Besides, the “Genotype 1a” value in experiment [2] is “C (C represents pEC50 between and 9 and about 10, (EC50 between 1 nM and 0.1 nM))”.
On to `COC(=O)N[C@H](C(=O)N1C[C@@H](C)C[C@H]1c1nc(-c2ccc(-c3ccc(C(=O)Nc4ccc(N5CCN(C(=O)[C@H]6CC6(C)C)C[C@H]5C)nc4)cc3)cc2)c[nH]1)C(C)C` [Example 4-1], for which the “Genotype 1b” value in experiment [1] is “D (D represents pEC50>10 (EC50<0.1 nM))”. The “Genotype 1a” value in experiment [2] is reported as “D (D represents pEC50>10 (EC50<0.1 nM))”.
Turning to `COCC1(C(=O)N2CCN(c3ccc(C(=O)Nc4cc(OC(F)(F)F)c(-c5ccc(-c6c[nH]c([C@@H]7C[C@H](OC)CN7C(=O)[C@@H](NC(=O)OC)C7CCOCC7)n6)cc5)cc4Cl)cn3)[C@H](C)C2)CCC1` [Example 28-22], in experiment [1], the “Genotype 1b” value is listed as “D (D represents pEC50>10 (EC50<0.1 nM))”. Further, the “Genotype 1a” value in experiment [2] is reported as “D (D represents pEC50>10 (EC50<0.1 nM))”.
With `CNC(=O)N1C[C@@H](C)N(c2ccc(C(=O)Nc3cc(OC(F)(F)F)c(-c4ccc(-c5c[nH]c([C@@H]6C[C@H](C)CN6C(=O)[C@@H](c6ccccc6)N6CCCCC6)n5)cc4)cc3Cl)cn2)C[C@@H]1C` [Example 5-9], the EC50 in experiment [1] and in experiment [2] was below 0.1 nM throughout.
Turning to `CNC(=O)N1C[C@@H](C)N(c2ccc(NC(=O)c3ccc(-c4ccc(-c5nc([C@@H]6C[C@H](C)CN6C(=O)[C@@H](NC(=O)OC)C(C)C)[nH]c5Cl)cc4)c(OC(F)(F)F)c3)cn2)C[C@@H]1C` [Example 4-12], the “Genotype 1b” value in experiment [1] is “D (D represents pEC50>10 (EC50<0.1 nM))”. The “Genotype 1a” value in experiment [2] was “D (D represents pEC50>10 (EC50<0.1 nM))”.
As for `COC(=O)N[C@H](C(=O)N1C[C@@H](C)C[C@H]1c1nc(-c2ccc(-c3cc(Cl)c(NC(=O)c4ccc(N5CCN(C(=O)C(C)(C)C)[C@@H](C)C5)nc4)cc3OC(F)(F)F)cc2)c[nH]1)C1CCOCC1` [Example 20-5], in experiment [1], the “Genotype 1b” value is on record as “D (D represents pEC50>10 (EC50<0.1 nM))”. For the same compound, the “Genotype 1a” value in experiment [2] is given as “D (D represents pEC50>10 (EC50<0.1 nM))”.
